Reference: ChEMBL document CHEMBL1126210, “Conformationally restricted peptide isosteres. 2.1 Synthesis and in vitro potency of dipeptide renin inhibitors employing a 2-alkylsulfonyl-3-phenylcyclopropane carboxamide as a P3 amino acid replacement” (Bioorg Med Chem Lett, 1992)

Legend:
Renin [1] = target: T1, Renin (Homo sapiens, UniProt P00797); experiment: In vitro inhibition of human plasma renin at PH 7.4
T1 sequence (P00797 whole entry): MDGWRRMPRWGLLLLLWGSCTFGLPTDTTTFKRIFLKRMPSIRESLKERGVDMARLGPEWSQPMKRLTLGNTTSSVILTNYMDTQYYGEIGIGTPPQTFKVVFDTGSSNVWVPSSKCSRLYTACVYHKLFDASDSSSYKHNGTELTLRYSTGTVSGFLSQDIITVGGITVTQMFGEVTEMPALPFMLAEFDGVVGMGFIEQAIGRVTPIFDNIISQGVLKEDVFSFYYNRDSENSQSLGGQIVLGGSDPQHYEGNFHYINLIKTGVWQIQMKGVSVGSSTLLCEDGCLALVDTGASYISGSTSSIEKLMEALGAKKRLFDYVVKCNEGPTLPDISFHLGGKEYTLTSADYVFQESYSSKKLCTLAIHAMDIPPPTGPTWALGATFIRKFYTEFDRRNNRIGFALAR

Renin [2] = target: T1, Renin; experiment: In vitro inhibition of purified human renin at PH 6.0

CC(C)C[C@H](O)[C@H](O)[C@H](CC1CCCCC1)NC(=O)[C@H](Cc1cscn1)NC(=O)[C@H]1[C@H](CC(=O)N2CCOCC2)[C@@H]1c1ccccc1
IC50 (Renin [1]): 20 nM | IC50 (Renin [2]): 0.7 nM

CC(C)C[C@H](O)[C@H](O)[C@H](CC1CCCCC1)NC(=O)[C@H](Cc1cscn1)NC(=O)[C@H](Cc1ccccc1)CS(=O)(=O)C(C)(C)C
IC50 (Renin [1]): 0.87 nM

CC(C)C[C@H](O)[C@H](O)[C@H](CC1CCCCC1)NC(=O)[C@H](Cc1cscn1)NC(=O)[C@@H]1[C@@H](C2CCCCC2)[C@H]1S(=O)(=O)C(C)C
IC50 (Renin [1]): 15 nM | IC50 (Renin [2]): 0.79 nM

CC(C)C[C@H](O)[C@H](O)[C@H](CC1CCCCC1)NC(=O)[C@H](Cc1cscn1)NC(=O)[C@H]1[C@H](c2ccccc2)[C@@H]1S(=O)(=O)C(C)C
IC50 (Renin [1]): 85 nM | IC50 (Renin [2]): 7 nM

C=CS(=O)(=O)[C@@H]1[C@@H](C(=O)N[C@@H](Cc2cscn2)C(=O)N[C@@H](CC2CCCCC2)[C@@H](O)[C@@H](O)CC(C)C)[C@@H]1c1ccccc1
IC50 (Renin [1]): 27 nM | IC50 (Renin [2]): 7.2 nM

CC(C)C[C@H](O)[C@H](O)[C@H](CC1CCCCC1)NC(=O)[C@H](Cc1cscn1)NC(=O)[C@H](Cc1ccccc1)CS(=O)(=O)N1CCOCC1
IC50 (Renin [1]): 1.4 nM

CC(C)C[C@H](O)[C@H](O)[C@H](CC1CCCCC1)NC(=O)[C@H](Cc1cscn1)NC(=O)[C@@H]1[C@@H](c2ccccc2)[C@H]1S(=O)(=O)c1ccccc1
IC50 (Renin [1]): 29 nM | IC50 (Renin [2]): 1.2 nM

CC(C)C[C@H](O)[C@H](O)[C@H](CC1CCCCC1)NC(=O)[C@H](Cc1cscn1)NC(=O)[C@H]1[C@H](C2CCCCC2)[C@@H]1S(=O)(=O)C(C)C
IC50 (Renin [2]): 14 nM

CC(C)C[C@H](NC(=O)[C@H]1[C@H](c2ccccc2)[C@@H]1S(=O)(=O)C(C)C)C(=O)N[C@@H](CC1CCCCC1)[C@@H](O)[C@@H](O)CC(C)C
IC50 (Renin [1]): 370 nM | IC50 (Renin [2]): 4.4 nM

CCCC[C@H](NC(=O)[C@@H]1[C@@H](c2ccccc2)[C@H]1S(=O)(=O)C(C)C)C(=O)N[C@@H](CC1CCCCC1)[C@@H](O)[C@@H](O)CC(C)C
IC50 (Renin [1]): 13 nM | IC50 (Renin [2]): 0.37 nM

CC(C)C[C@H](O)[C@H](O)[C@H](CC1CCCCC1)NC(=O)[C@H](Cc1cscn1)NC(=O)[C@@H]1[C@@H](c2ccccc2)[C@H]1S(C)(=O)=O
IC50 (Renin [1]): 23 nM | IC50 (Renin [2]): 0.63 nM

CC(C)C[C@H](O)[C@H](O)[C@H](CC1CCCCC1)NC(=O)[C@H](Cn1ccnc1)NC(=O)[C@H]1[C@H](c2ccccc2)[C@@H]1S(=O)(=O)C(C)C
IC50 (Renin [1]): 15 nM | IC50 (Renin [2]): 2.5 nM

CC(C)C[C@H](O)[C@H](O)[C@H](CC1CCCCC1)NC(=O)[C@H](Cc1cscn1)NC(=O)[C@@H]1[C@@H](c2ccccc2)[C@H]1S(=O)(=O)C(C)C
IC50 (Renin [1]): 7.9 nM | IC50 (Renin [2]): 0.38 nM

COCOCCS(=O)(=O)[C@H]1[C@H](C(=O)N[C@@H](Cc2cscn2)C(=O)N[C@@H](CC2CCCCC2)[C@@H](O)[C@@H](O)CC(C)C)[C@H]1c1ccccc1
IC50 (Renin [1]): 16 nM | IC50 (Renin [2]): 0.48 nM

COCOCCS(=O)(=O)[C@@H]1[C@@H](C(=O)N[C@@H](Cc2cscn2)C(=O)N[C@@H](CC2CCCCC2)[C@@H](O)[C@@H](O)CC(C)C)[C@@H]1c1ccccc1
IC50 (Renin [1]): 33 nM | IC50 (Renin [2]): 1 nM

C=CS(=O)(=O)[C@H]1[C@H](C(=O)N[C@@H](Cc2cscn2)C(=O)N[C@@H](CC2CCCCC2)[C@@H](O)[C@@H](O)CC(C)C)[C@H]1c1ccccc1
IC50 (Renin [1]): 17 nM | IC50 (Renin [2]): 0.63 nM

CO[C@@H](CC(C)C)[C@H](O)[C@H](CC1CCCCC1)NC(=O)[C@H](Cc1cscn1)NC(=O)C(Cc1ccccc1)CS(=O)(=O)c1ccccc1 (stereo partly drawn)
IC50 (Renin [1]): 18 nM | IC50 (Renin [2]): 0.77 nM

CC(C)C[C@H](O)[C@H](O)[C@H](CC1CCCCC1)NC(=O)[C@H](Cn1ccnc1)NC(=O)[C@@H]1[C@@H](c2ccccc2)[C@H]1S(=O)(=O)C(C)C
IC50 (Renin [1]): 5.8 nM | IC50 (Renin [2]): 1.4 nM

CC(C)C[C@H](NC(=O)[C@@H]1[C@@H](c2ccccc2)[C@H]1S(=O)(=O)C(C)C)C(=O)N[C@@H](CC1CCCCC1)[C@@H](O)[C@@H](O)CC(C)C
IC50 (Renin [1]): 14 nM | IC50 (Renin [2]): 0.59 nM

CC(C)C[C@H](O)[C@H](O)[C@H](CC1CCCCC1)NC(=O)[C@H](Cc1cscn1)NC(=O)[C@H]1[C@H](c2ccccc2)[C@@H]1S(C)(=O)=O
IC50 (Renin [2]): 23 nM

CCCC[C@H](NC(=O)[C@H]1[C@H](c2ccccc2)[C@@H]1S(=O)(=O)C(C)C)C(=O)N[C@@H](CC1CCCCC1)[C@@H](O)[C@@H](O)CC(C)C
IC50 (Renin [1]): 160 nM | IC50 (Renin [2]): 1.9 nM
